Entries after “also recorded” stand apart in the source; their conditions may differ. Like-named read-outs stand apart in the source and are kept apart here. One block for each molecule: values may come before it.
Legend:
Aqueous solubility = assay type: physicochemical
[1] = tested on: murine open tibial fracture; test: Murine open tibial fracture model, periosteally stripped (histology, CT scans); assay type: in vivo, C57BI/6 mice; conditions: for fracture healing: 1-MT, 20 μl in PBS at fracture site; for healing of tibial fractures by CT scans: 28 days post injury, local administration at fracture site (TNFα 50 ng/kg and HMGB1 at time of fracture and 24 hr later) (FIG. 19, 30)
[2] = tested on: muscle-derived stromal cells (MDSC); test: Bone nodule formation by MDSC (alizarin red staining); assay type: cell-based, human; conditions: Example 3; recombinant cytokine at optimal dose for first 3 days, human serum-containing media (FIG. 26E)
Excerpt: (§1) FIG. 26 TNF-α and IL-6 promote osteogenic differentiation of MDSC A-D: ALP quantification assays after culture of 1×10^4 MDSC for 7 days in a 96-well plate in triplicate with: A: fracture supernatant, ±antibody neutralization of BMPs 2/4 7 and to TGF-β. The immunoglobulin isotype controls used included IgG^1 for AbBMP-2/4 and AbTGF-β, and IgG^2B for Ab-BMP-7. B: human serum containing culture medium with the addition of recombinant human BMPs and TGF-β. C: fracture supernatant±antibody neutralization of TNF-α, IL-6 and IL-1β. The IgG^1 immunoglobulin was used as the antibody isotype control. D: human serum-containing culture medium with the addition of recombinant human TNF-α, IL-6 and IL-1β. E: Alizarin red staining for bone nodule formation after culture of 1×10^4 MDSC in human serum-containing media. Recombinant human cytokine at the optimal dose indicated by D, was added for the first 3 days ONLY, and the cells were subsequently cultured in media for 32 days. A representative image from a single well is shown. All experiments were performed 3 times, in triplicate (n=3) using MDSC from 3 donors. Values for A-D represent a mean from 3 experiments ±SEM, using supernatant from 3 donors in A and C. *: P<0.05; **: P<0.01; ***: P<0.001; 1-way ANOVA with Bonferroni's multiple comparison test in A and C and with Dunnett's multiple comparison test against the media only control in B and D.
1×10^4 MDSC were added to wells of a 24-well plate in triplicate. The cells were cultured for 35-40 days in osteogenic media (DMEM with 10% fetal calf serum and 1% penicillin/streptomycin also containing 100 nM dexamethasone (SIGMA), 1 mM β-glycerol phosphate and […] ascorbic acid), supernatant or media containing recombinant cytokines (with one media change per week) the cells were fixed with 2 ml 10% neutral buffered formalin at room temperature for 15 min. The plate was then washed twice with excess PBS. 1 ml filtered 40 mM alizarin red solution (pH 4.1) was added to each well and agitated at room temperature for 30 minutes. The excess dye was then aspirated and the plate washed four times in distilled water with gentle agitation. Finally, the plates were turned upside-down on paper to dry. Bone nodules appeared red under light microscopy. Images were taken at 20 times magnification and performed as above.

[3] = tested on: muscle-derived stromal cells (MDSC); test: MDSC proliferation (CellTiter-Glo luminescent cell viability assay); assay type: cell-based, human; conditions: Example 3; for MDSC proliferation: 1, 3 and 5 days in human serum-containing media ± recombinant human cytokine (FIG. 28); for cell proliferation in excess of the media-only control: recombinant human BMPs, data not shown
Protocol: CellTiter-Glo® luminescent cell viability assay for MDSC in culture with A: TNF-α, B: IL-6 and C: IL-1β. 2.5×10^3 cells were cultured in triplicate for 1, 3 and 5 days in human serum-containing media ± recombinant human cytokine at the concentration indicated. The number of viaBIe cells in culture was determined using the assay, where luminescent signal is directly proportional to the concentration of ATP from viaBIe cells.
In order to test this hypothesis, proliferation of MDSC in human serum-containing media with rhTNF-α, rhIL-6 and rhIL-1β was tested using the CellTiter-Glo® luminescent cell viability assay was used (Promega Corp., Madison, Wis.).
This method assays the number of viaBIe cells in culture, by measuring adenosine triphosphate (ATP), where the luminescent signal is directly proportional to the number of ATP present.

[4] = tested on: muscle-derived stromal cells (MDSC); test: MDSC migration through a transwell membrane; assay type: cell-based, human; conditions: for migration of MDSC: 8 μm transwell, 36 hours, recombinant cytokine in human serum-containing media (FIG. 27B)
Protocol: Migration of 1×10^4 MDSC through an 8 μm pore transwell membrane over 36 hours, in response to fracture supernatant with the addition of AbTNF-α, AbIL-6 and AbIL-1β. The IgG^1 immunoglobulin was used as the antibody control. B: Migration in response to rhTNF-α, rhIL-6 and rhIL-1β in human serum-containing media. Results represent change in cell number, expressed as a percentage of the supernatant, or media only control. Each experiment was performed 3 times (n=3) using 3 fracture supernatants (in A). Results represent mean of 3 experiments ±SEM. *: P<0.05; **: P<0.01; ***: P<0.001; 1-way ANOVA with Bonferroni's multiple comparison test.
MDSC must be recruited to the fracture site from adjacent muscle. Next we assessed the efficacy of the pro-inflammatory cytokines in attracting MDSC in vitro using a transwell assay. 1×10^4 MDSC were seeded onto a 8 μm transwell membrane in serum free media. Next day, the transwell membrane was added to a well containing 10% human serum-containing media +IL-1β, IL6 and TNFα at the end concentrations shown. At 24 hrs the membrane was cleared of any cells on the seeded side, fixed and stained. IL-1β appeared not promote MDSC chemotaxis.
500 μl serum free media was added to each well of a 24 well plate. 8 μm pore transwell membranes (VWR International Ltd) were then added to the wells. 1×10^4 MDSC in serum free media were added to the upper chamber of each transwell membrane. At 12 hours the serum-free media was replaced with test or control media or supernatant and incubated at 37° C. for 36 hours. The upper chambers were then cleared of cells and cell debris using a cotton bud, in sweeping motions. The membrane was then washed and fixed using 10% neutral buffered formalin for 1 hour. After washing, the membrane was then added to a 1% crystal violet solution for 1 hour. After further washing, the membranes were viewed under light microscopy at 20 times magnification, using an Olympus CKX41 microscope with a QICAM camera, (QIMAGING, GT vision LLC). The number of cells present on the underside of the transwell membrane in any random field was counted 3 times and the mean calculated. Cell migration was calculated against the supernatant or human serum-containing (control) media and the number expressed as a percentage relative to the control media.

[5] = tested on: muscle-derived stromal cells (MDSC); test: ALP quantification assay, osteogenic differentiation of cultured MDSC; assay type: cell-based, human; conditions: for ALP expression (osteogenic differentiation) in cultured MDSC: Example 1, exogenous recombinant human factor added to MDSC culture (FIG. 8, 10, 12); for ALP expression by MDSC: 7 days in human serum-containing media with recombinant human factor (FIG. 26B, 26D)
Excerpt: as §1, with “The” for “FIG. 26 TNF-α and IL-6 promote osteogenic differentiation of MDSC A-D: ALP quantification assays after culture of 1×10^4 MDSC for 7 days in a 96-well plate in triplicate with: A: fracture supernatant, ±antibody neutralization of BMPs 2/4 7 and to TGF-β. The”, “Recombinant human cytokine at the optimal dose indicated by D, was added for the first 3 days ONLY, and the cells were subsequently cultured in media for 32 days.” left out
To investigate the fracture-derived stimulus for osteogenic differentiation of MDSC, fracture supernatants were prepared using human tibial fracture fragments obtained within 24 hours of injury (ethics approval number—COREC No: 07/Q0411/30). […] Bone fragments were obtained from either fractured tibial fragments or non-traumatically cut bone slices. These were then incubated in serum free DMEM+Glutamax media for 24 hours. The supernatant was then filter sterilised to remove any contaminants and cellular debris. MDSC were then cultured in the presence of either control media, osteogenic media, fracture supernatant or non-fracture supernatant for 7 days before lysis and quantification of ALP levels.
1×10^4 human MDSC were added to wells of a 96 well plate in triplicate. At 24 hrs the media was pipetted off and replaced by 200 μl test media. The media was changed every 3 days. At 7 days the media was removed and the cells lysed in 20 μl NP-40 lysis buffer. An ALP quantification assay (WAKO pure chemical Ltd.) was used. Calibration solution from the assay was serially diluted to make concentrations of 0.25, 0.125 and 0.0625 mmol/L. To empty wells, 20 μl of each calibration solution was added. To another, dH2O was added. 100 μl reagent (1 taBIet per 5 ml buffer solution) was added to each well, and incubated at 37° C. for 20 minutes. 80 μl stop solution was then added to each well and the plate was read using an ELISA spectrometer at 405 nm wavelength. The concentration of ALP in the test wells was extrapolated from the standard curve.

- aqueous solubility (Aqueous solubility): poorly soluBIe in aqueous solutions
- aqueous solubility (Aqueous solubility; listed as 1MT): poor aqueous solubility
Molecule: Cn1cc(C[C@H](N)C(=O)O)c2ccccc21 [1-MT, 1-methyl tryptophan, reference compound]
- fracture healing ([1]; histology day 14 (FIG. 21)): accelerated fracture healing
- fracture healing ([1]; histology day 14 (FIG. 21), listed as 1-methyl tryptophan): dose dependent acceleration of fracture healing
- healing of tibial fractures by CT scans [1]: trend to improved healing but did not reach statistical significance
- dose of greatest response (maximal dose tested) ([1]; FIG. 21): 500 µg/mL
- concentrations giving accelerated fracture healing ([1]; within the range tested (0.5-5 mg/kg), histology day 14 (FIG. 21)): ≥ 500 µg/mL

Molecule: IL-1β: pro-inflammatory cytokine, recombinant human IL-1β
- bone nodule formation by MDSC [2]: did not stimulate bone nodule formation
- MDSC proliferation [3]: do not promote MDSC proliferation
- migration of MDSC ([4]; Example 3): did not appear to promote MDSC migration
- ALP expression (osteogenic differentiation) in cultured MDSC [5]: dose-dependent stimulation of ALP expression
- concentration of peak ALP expression by MDSC ([5]; Example 3, variable between donor cell populations (FIG. 26D)): 100 µg/mL

Molecule: IL-6: pro-inflammatory cytokine, recombinant human IL-6
- bone nodule formation by MDSC [2]: promoted de novo bone formation
- MDSC proliferation [3]: do not promote MDSC proliferation
- chemotaxis / migration of MDSC ([4]; Example 1, transwell, 10% human serum-containing media, 24 hrs (FIG. 14)): promote chemotaxis of MDSC
- migration of MDSC ([4]; Example 3): chemo attractant for MDSC
- optimal concentration for MDSC migration ([4]; Example 3, transwell, 36 hours (FIG. 27B)): 1 ng/mL
- ALP expression (osteogenic differentiation) in cultured MDSC [5]: dose-dependent stimulation of ALP expression
- ALP expression by MDSC ([5]; Example 3): increased with the dose through the range tested

Molecule: TGF-β
- ALP expression (osteogenic differentiation) in cultured MDSC [5]: promotes osteogenic differentiation
- ALP expression by MDSC ([5]; Example 3): did not induce ALP expression

B1: BMP4: recombinant human bone morphogenetic protein 4 (protein, UniProt P12644 293-408, looked up)
Bone morphogenetic protein 4: SPKHHSQRARKKNKNCRRHSLYVDFSDVGWNDWIVAPPGYQAFYCHGDCPFPLADHLNSTNHAIVQTLVNSVNSSIPKACCVPTELSAISMLYLDEYDKVVLKNYQEMVVEGCGCR
- cell proliferation in excess of the media-only control [3]: did not induce cell proliferation
- ALP expression by MDSC ([5]; Example 3): did not induce ALP expression

B2: IFN-γ: proinflammatory cytokine, recombinant human Interferon-gamma (protein, UniProt P01579 24-161, looked up)
Interferon gamma: QDPYVKEAENLKKYFNAGHSDVADNGTLFLGILKNWKEESDRKIMQSQIVSFYFKLFKNFKDDQSIQKSVETIKEDMNVKFFNSNKKKRDDFEKLTNYSVTDLNVQRKAIHELIQVMAELSPAAKTGKRKRSQMLFRG
- ALP expression (osteogenic differentiation) in cultured MDSC [5]: modest dose-dependent stimulation of osteogenesis

B3: HMGB1: damage associated molecular pattern molecule (alarmin), RAGE ligand protein (protein, UniProt P09429 1-215, looked up)
High mobility group protein B1: MGKGDPKKPRGKMSSYAFFVQTCREEHKKKHPDASVNFSEFSKKCSERWKTMSAKEKGKFEDMAKADKARYEREMKTYIPPKGETKKKFKDPNAPKRPPSAFFLFCSEYRPKIKGEHPGLSIGDVAKKLGEMWNNTAADDKQPYEKKAAKLKEKYEKDIAAYRAKGKPDAAKKGVVKAEKSKKKKEEEEDEEDEEDEEEEEDEEDEDEEEDDDDE
- healing of tibial fractures by CT scans [1]: statistically significantly enhanced healing; also recorded: accelerates fracture healing

B4: BMP7: recombinant human bone morphogenetic protein 7 (protein, UniProt P18075 293-431, looked up)
Bone morphogenetic protein 7: STGSKQRSQNRSKTPKNQEALRMANVAENSSSDQRQACKKHELYVSFRDLGWQDWIIAPEGYAAYYCEGECAFPLNSYMNATNHAIVQTLVHFINPETVPKPCCAPTQLNAISVLYFDDSSNVILKKYRNMVVRACGCH
- cell proliferation in excess of the media-only control [3]: did not induce cell proliferation
- ALP expression (osteogenic differentiation) in cultured MDSC [5]: promotes osteogenic differentiation
- ALP expression by MDSC ([5]; Example 3): did not induce ALP expression

Source: patent publication US20120213826A1, “Use of Pro-Inflammatory Compounds for Promoting Bone Formation” (Imperial Innovations Limited, priority 2009, published 2012)
